The conditions of this data set: Crystal; DTA.

The values that follow come from the NIST ThermoML archive (doi:10.1021/je8002157).

Molecules are shown by their SMILES. ± gives the expanded uncertainty stated by the source.

As for `NC(=O)N1c2ccccc2C=Cc2ccccc21` [carbamazepine], the Normal melting temperature worked out at 193.00 ± 1 °C.
